In PubChem BioAssay (NCI):
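96-well plates; 48 h exposure; 5 concentrations. Endpoints by linear interpolation between flanking doses. Not reached: highest tested concentration assigned. TGI is the concentration that stops growth completely.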

Experiments:
Test in all cases: NCI anticancer screen, dose series, 48 h
[1] = system: SK-MEL-28 melanoma
[2] = system: KM12 colon
[3] = system: RPMI-8226 leukemia
[4] = system: SK-MEL-5 melanoma
[5] = system: UACC-62 melanoma
[6] = system: RXF 393 renal
[7] = system: OVCAR-3 ovarian
[8] = system: NCI-H460 lung
[9] = system: ACHN renal
[10] = system: HCT-15 colon
[11] = system: DMS 273 small cell lung
[12] = system: NCI-H522 lung
[13] = system: EKVX NSCLC
[14] = system: UACC-257 melanoma
[15] = system: SN12C renal
[16] = system: SW-620 colon
[17] = system: OVCAR-8 ovarian
[18] = system: CAKI-1 renal
[19] = system: MOLT-4 leukemia
[20] = system: SF-539 CNS
[21] = system: DMS 114 small cell lung
[22] = system: LOX IMVI melanoma
[23] = system: UO-31 renal
[24] = system: HOP-92 NSCLC
[25] = system: DLD-1 colon
[26] = system: A549 NSCLC
[27] = system: K-562 leukemia
[28] = system: SF-268 CNS
[29] = system: OVCAR-5 ovarian
[30] = system: KM20L2 colon
[31] = system: MALME-3M melanoma
[32] = system: U251 CNS
[33] = system: NCI-H226 lung
[34] = system: HOP-18 NSCLC
[35] = system: HCC-2998 colon
[36] = system: M19-MEL melanoma
[37] = system: XF 498 CNS
[38] = system: HCT-116 colon
[39] = system: SNB-19 CNS
[40] = system: HOP-62 NSCLC
[41] = system: M14 melanoma
[42] = system: HT29 colon
[43] = system: LXFL 529 NSCLC
[44] = system: IGROV1 ovarian
[45] = system: COLO 205 colon
[46] = system: NCI-H23 lung
[47] = system: 786-0 renal
[48] = system: A498 renal
[49] = system: SK-OV-3 ovarian
[50] = system: CCRF-CEM leukemia
[51] = system: SNB-78 CNS
[52] = system: OVCAR-4 ovarian
[53] = system: SNB-75 CNS
[54] = system: TK-10 renal
[55] = system: SF-295 CNS
[56] = system: HL-60(TB) leukemia
[57] = system: SK-MEL-2 melanoma

Question: For `Cc1ccc(S(=O)(=O)NC2CCCCO2)cc1` (stereo not drawn), which TGI [1] is on record?
Answer: > 100 µM

Question: What about the TGI [2] of the same compound?
Answer: > 100 µM

Question: What about the TGI [3] of the same compound?
Answer: > 100 µM

Question: And the TGI [4]?
Answer: > 100 µM

Question: And the TGI [5]?
Answer: > 100 µM

Question: What about the TGI [6] of the same compound?
Answer: > 100 µM

Question: And the TGI [7]?
Answer: > 100 µM

Question: And the TGI [8]?
Answer: > 100 µM

Question: What about the TGI [9] of the same compound?
Answer: > 100 µM

Question: What about the TGI [10] of the same compound?
Answer: > 100 µM

Question: What about the TGI [11] of the same compound?
Answer: > 100 µM

Question: What about the TGI [12] of the same compound?
Answer: > 100 µM

Question: And the TGI [13]?
Answer: > 100 µM

Question: And the TGI [14]?
Answer: > 100 µM

Question: What about the TGI [15] of the same compound?
Answer: > 100 µM

Question: What about the TGI [16] of the same compound?
Answer: > 100 µM

Question: What about the TGI [17] of the same compound?
Answer: > 100 µM

Question: What about the TGI [18] of the same compound?
Answer: > 100 µM

Question: And the TGI [19]?
Answer: > 100 µM

Question: What about the TGI [20] of the same compound?
Answer: > 100 µM

Question: What about the TGI [21] of the same compound?
Answer: > 100 µM

Question: And the TGI [22]?
Answer: > 100 µM

Question: What about the TGI [23] of the same compound?
Answer: > 100 µM

Question: And the TGI [24]?
Answer: > 100 µM

Question: And the TGI [25]?
Answer: > 100 µM

Question: And the TGI [26]?
Answer: > 100 µM

Question: What about the TGI [27] of the same compound?
Answer: > 100 µM

Question: What about the TGI [28] of the same compound?
Answer: > 100 µM

Question: And the TGI [29]?
Answer: > 100 µM

Question: And the TGI [30]?
Answer: > 100 µM

Question: What about the TGI [31] of the same compound?
Answer: > 100 µM

Question: What about the TGI [32] of the same compound?
Answer: > 100 µM

Question: And the TGI [33]?
Answer: > 100 µM

Question: What about the TGI [34] of the same compound?
Answer: > 100 µM

Question: What about the TGI [35] of the same compound?
Answer: > 100 µM

Question: And the TGI [36]?
Answer: > 100 µM

Question: What about the TGI [37] of the same compound?
Answer: > 100 µM

Question: What about the TGI [38] of the same compound?
Answer: > 100 µM

Question: And the TGI [39]?
Answer: > 100 µM

Question: What about the TGI [40] of the same compound?
Answer: > 100 µM

Question: What about the TGI [41] of the same compound?
Answer: > 100 µM

Question: And the TGI [42]?
Answer: > 100 µM

Question: What about the TGI [43] of the same compound?
Answer: > 100 µM

Question: And the TGI [44]?
Answer: > 100 µM

Question: What about the TGI [45] of the same compound?
Answer: > 100 µM

Question: And the TGI [46]?
Answer: > 100 µM

Question: And the TGI [47]?
Answer: > 100 µM

Question: What about the TGI [48] of the same compound?
Answer: > 100 µM

Question: What about the TGI [49] of the same compound?
Answer: > 100 µM

Question: And the TGI [50]?
Answer: > 100 µM

Question: And the TGI [51]?
Answer: > 100 µM

Question: What about the TGI [52] of the same compound?
Answer: > 100 µM

Question: And the TGI [53]?
Answer: > 100 µM

Question: Which results are given for `CC1(O)C(C)(O)C(C)(O)C1(C)O` (stereo not drawn)?
Answer: TGI [1]: > 100 µM; TGI [2]: > 100 µM; TGI [4]: > 100 µM; TGI [5]: > 100 µM; TGI [6]: > 100 µM; TGI [7]: > 100 µM; TGI [8]: > 100 µM; TGI [9]: > 100 µM; TGI [10]: > 100 µM; TGI [11]: > 100 µM; TGI [12]: > 100 µM; TGI [13]: > 100 µM; TGI [14]: > 100 µM; TGI [15]: > 100 µM; TGI [16]: > 100 µM; TGI [17]: > 100 µM; TGI [18]: > 100 µM; TGI [19]: > 100 µM; TGI [20]: > 100 µM; TGI [21]: > 100 µM; TGI [54]: > 100 µM; TGI [55]: > 100 µM; TGI [22]: > 100 µM; TGI [23]: > 100 µM; TGI [24]: > 100 µM; TGI [25]: > 100 µM; TGI [26]: > 100 µM; TGI [27]: > 100 µM; TGI [28]: > 100 µM; TGI [29]: > 100 µM; TGI [30]: > 100 µM; TGI [31]: > 100 µM; TGI [32]: > 100 µM; TGI [33]: > 100 µM; TGI [34]: > 100 µM; TGI [35]: > 100 µM; TGI [36]: > 100 µM; TGI [37]: > 100 µM; TGI [56]: > 100 µM; TGI [38]: > 100 µM; TGI [39]: > 100 µM; TGI [40]: > 100 µM; TGI [41]: > 100 µM; TGI [42]: > 100 µM; TGI [43]: > 100 µM; TGI [44]: > 100 µM; TGI [45]: > 100 µM; TGI [46]: > 100 µM; TGI [57]: > 100 µM; TGI [47]: > 100 µM; TGI [48]: > 100 µM; TGI [49]: > 100 µM; TGI [50]: > 100 µM; TGI [51]: > 100 µM; TGI [52]: > 100 µM; TGI [53]: > 100 µM

Question: For `Cn1cc(NC(=O)c2cc(NC(=O)CCCCCCCCCC(=O)Nc3cc(C(=O)Nc4cc(C(=O)NCCC(=N)N)n(C)c4)n(C)c3)cn2C)cc1C(=O)NCCC(=N)N`, which TGI [1] is on record?
Answer: 62.2 µM

Question: What about the TGI [2] of the same compound?
Answer: 31.7 µM

Question: What about the TGI [3] of the same compound?
Answer: 54.9 µM

Question: And the TGI [4]?
Answer: > 100 µM

Question: What about the TGI [5] of the same compound?
Answer: > 100 µM

Question: And the TGI [6]?
Answer: > 100 µM

Question: And the TGI [7]?
Answer: 35.1 µM

Question: And the TGI [8]?
Answer: > 100 µM

Question: And the TGI [9]?
Answer: 73.3 µM

Question: What about the TGI [10] of the same compound?
Answer: > 100 µM

Question: What about the TGI [11] of the same compound?
Answer: > 100 µM

Question: What about the TGI [12] of the same compound?
Answer: > 100 µM

Question: What about the TGI [13] of the same compound?
Answer: 83.1 µM

Question: And the TGI [14]?
Answer: > 100 µM

Question: What about the TGI [15] of the same compound?
Answer: > 100 µM

Question: What about the TGI [16] of the same compound?
Answer: > 100 µM

Question: And the TGI [17]?
Answer: 83.1 µM

Question: What about the TGI [18] of the same compound?
Answer: > 100 µM

Question: And the TGI [19]?
Answer: 82.1 µM

Question: What about the TGI [20] of the same compound?
Answer: > 100 µM

Question: What about the TGI [21] of the same compound?
Answer: > 100 µM

Question: And the TGI [54]?
Answer: 85.9 µM

Question: What about the TGI [55] of the same compound?
Answer: 75 µM

Question: What about the TGI [22] of the same compound?
Answer: 83.5 µM

Question: And the TGI [23]?
Answer: > 100 µM

Question: And the TGI [24]?
Answer: 65.5 µM

Question: And the TGI [25]?
Answer: > 100 µM

Question: And the TGI [26]?
Answer: 57.1 µM

Question: What about the TGI [27] of the same compound?
Answer: > 100 µM

Question: What about the TGI [28] of the same compound?
Answer: 89.3 µM

Question: What about the TGI [29] of the same compound?
Answer: 66.4 µM

Question: And the TGI [30]?
Answer: > 100 µM

Question: What about the TGI [31] of the same compound?
Answer: 26.7 µM

Question: What about the TGI [32] of the same compound?
Answer: > 100 µM

Question: What about the TGI [33] of the same compound?
Answer: > 100 µM

Question: And the TGI [34]?
Answer: 96.1 µM

Question: What about the TGI [36] of the same compound?
Answer: > 100 µM

Question: And the TGI [37]?
Answer: 98.9 µM

Question: What about the TGI [38] of the same compound?
Answer: > 100 µM

Question: And the TGI [39]?
Answer: > 100 µM

Question: What about the TGI [40] of the same compound?
Answer: 81.3 µM

Question: And the TGI [41]?
Answer: 70.1 µM

Question: What about the TGI [42] of the same compound?
Answer: 46.2 µM

Question: And the TGI [43]?
Answer: > 100 µM

Question: And the TGI [44]?
Answer: > 100 µM

Question: And the TGI [45]?
Answer: > 100 µM

Question: And the TGI [46]?
Answer: > 100 µM

Question: What about the TGI [57] of the same compound?
Answer: > 100 µM

Question: And the TGI [47]?
Answer: 93.3 µM

Question: What about the TGI [49] of the same compound?
Answer: > 100 µM

Question: What about the TGI [50] of the same compound?
Answer: 69.2 µM

Question: And the TGI [51]?
Answer: > 100 µM

Question: And the TGI [52]?
Answer: > 100 µM

Question: And the TGI [53]?
Answer: 55.4 µM
